Results from US5877165A, “Boronated porhyrins and methods for their use” (priority 1997, dated 1999).

Tests used:
EMT-6 mammary tumors = assay: Experiment II: boron concentrations in tissues, mice bearing EMT-6 tumors (Table 9); format: in vivo, BALB/c mice; settings: 90 hrs after last ip injection; NiDPE 78 (6 ip), VCDP 245 μg/gbw (12 ip)
Method: Lipophilic porphyrins 1, 2, 4, 5, and 6 were injected as emulsions in either 3% or 9% CRM and either 6% or 18% PRG with saline as previously described in Example 2 above. Water soluble porphyrins 3 and 7 were dissolved in saline. BPA was solubilized as a fructose complex.
Female BALB/c mice (from Taconic Farms, Germantown, N.Y.) (20-25 g) were implanted with either KHJJ or EMT-6 tumors according to the procedure described in Example 3A above.
Under deep halothane anesthesia leading to euthanasia, right ventricular blood was collected in Microtainer (Becton-Dickinson, Rutherford, N.J.) tubes containing EDTA for hematological analyses and boron assays of whole blood and in Microtainer™ tubes containing lithium heparin for chemical analyses and enzyme assays of blood plasma. Tumor, brain, fat, muscle, and liver tissues were sampled at necropsy for boron analyses.
Hematological, chemical and enzymatic tests were carried out as described in Example 3 above. Nonparametric statistical analyses were carried out using the Wilcoxon Two-Sample Test in accordance with procedures described in Slatkin, D.N., 1995. Boron analyses were conducted in accordance with the procedure described in Example 3 above. Fat and liver tissues were assayed for ^10 B by prompt-gamma spectroscopy as described in Fairchild, et al., 1986. These measurements were multiplied by 5.0 to give total boron concentrations due to the use of boron of natural isotope abundance in the syntheses of all boronated porphyrins reported.

EMT-6 tumors = assay: Boron concentrations arithmetically normalized to constant dose, mice bearing EMT-6 tumors (FIG. 3); format: in vivo, BALB/c mice; settings: normalized porphyrin dose (160 μg porphyrin/gbw)
Method: Since the porphyrins were not given at the same dose, the boron concentrations in tumor, blood, and brain were arithmetically normalized to a total dose of 160 μg porphyrin/gbw for comparison in FIG. 3. Since each porphyrin has a different percentage of boron per unit mass, tumor boron concentrations were also arithmetically normalized to a total dose of 36.5 μg B/gbw, also shown in FIG. 3.

[1] = cited from earlier work
[2] = Overall ranking of boronated porphyrins for BNCT guided by biodistribution and toxicity tests in mice (Table 11); settings: rank; higher numerical value = better performance
Method: The higher the numerical value, the better the performance of that porphyrin for that property. […] Although VCDP was able to deliver therapeutic amounts of boron to tumor, such side effects such as thrombocytopenia, which was induced within 3 hours after injections, weight loss, and the altered hepatic enzymes were serious enough to rank VCDP considerably behind the TCP's and the TCP-H's (Miura et al., 1992). In addition, the 80-hour drug administration period and the 90-hour blood clearance period are of great inconvenience. Moreover, this 4-day difference between the VCDP and the TCP (or TCP-H) dose and clearance schedules would translate into a 4-day greater delay between initiation of drug administration and neutron irradiation which would allow greater tumor growth to occur.
[…]
biodistribution and toxicity tests in mice. An asterisk indicates

Substance: 3,8-divinyl-nido-carboranyldeuteroporphyrin [VCDP]
- Boron concentration, Blood (EMT-6 mammary tumors): 7 (4.3-13) μB/g
- Boron concentration, Brain (EMT-6 mammary tumors): 8.1 (4.9-16.2) μB/g
- Boron concentration, Tumor (EMT-6 mammary tumors): 53 (30-106) μB/g
- tumor boron uptake, normalized (EMT-6 tumors): 38
- toxicity vs control, in words ([1]; 130 μg VCDP/gbw over 32 hr, 90 hrs after last injection (Miura et al., 1992)): no differences from control groups given a bicarbonate solution, although CPK was slightly depressed
- time to thrombocytopenia after injections ([1]; Miura et al., 1992): ≤ 3 h
- dose per injection that keeps mortality below 10% ([1]; per injection, mice): 22 μg VCDP/gbw
- Drug tolerance/deliverable boron (ranking) [2]: 2
- Lipophilicity (ranking) [2]: 0
- Tumor uptake (normalized) (ranking) [2]: 3
- Tumor:Blood (ranking) [2]: 2
